Like-named read-outs stand apart in the source and are kept apart here.
What was measured:
Format in all cases: cell-based
erythrocyte = conditions: 37° C., 1 h
Method: Human blood was collected in 10 mL Vacutainer tubes containing potassium-EDTA as anticoagulant. The blood from each vacutainer was transferred to a 50 mL centrifuge tube and the cells washed three times with calcium- and magnesium-free phosphate buffered saline (PBS) (Gibco) by centrifugation at 2000×g for 15 min. The third supernatant was clear and colourless. Cells were stored in PBS for up to two weeks. The cell suspension in PBS (0.5 mL) was mixed with a stock solution of test substance (0.5 mL) at the appropriate concentration (final erythrocyte concentration of approx. 0.5×10^9 per mL). The mixtures were incubated at 37° C. for 1 h with gentle shaking, then centrifuged at 2000×g for 10 min. The supernatant was diluted 10-fold with PBS and the optical density measured at 540 nm. The values for 0% and 100% lysis were determined by incubating cells with PBS or 0.1% Triton X-100 (in water), respectively. Assays were carried out in triplicate.

[1] = tested on: Candida albicans ATCC 10231; experiment: Antifungal susceptibility testing, microdilution MIC
Method: (§1) Antifungal susceptibility testing. The antifingal activity of the compounds was measured by a standard microdilution method. […] The fungal strains tested included Cryptococcus neoformans H99, Cryptococcus neoformans ATCC 90112 and Candida albicans ATCC 10231. All tests were performed in duplicate.
(§2) A range of cationic compounds were assayed for antifungal activity in a standardised serial dilution sensitivity test against C. neoformans ([…]) and C. Albicans (ATCC 10231).

[2] = tested on: Cryptococcus neoformans ATCC 90112; experiment: as above
Method: as §1, §2

[3] = Candida albicans, ATCC10231, Table 7, read-out: MIC (μM) C. alb. (10231)
[4] = Cryptococcus neoformans, ATCC90112, Table 7, read-out: MIC (μM) Crypto. (ATCC 90112)
[5] = Table 7, read-out: MIC (μM) C. alb. (10231)
[6] = Table 7, read-out: MIC (μM) Crypto. (ATCC 90112)

| Compound | Haemolytic assay (%) (erythrocyte; 3.5 μM) | Haemolytic assay (%) (erythrocyte; 35 μM) | Haemolytic assay (%) (erythrocyte; 88 μM) | Haemolytic assay (%) (erythrocyte; 175 μM) | Haemolytic assay (%) (erythrocyte; 350 μM) | MIC [1, 3] | also measured |
| --- | --- | --- | --- | --- | --- | --- | --- |
| CCCCCCCCCCCCCCCC[N+](CCCC)(CCCC)CCCC | 2.5% | 4% | 19% | 75% | 100% | 1.4 µM |  |
| CCCC[N+](CCCC)(CCCC)CCCCCCCCCCC[N+](CCCC)(CCCC)CCCC [1,11-Bis-(tributylammonium)undecane dichloride] |  |  |  |  |  | 44 µM | MIC [2, 4]: 22 µM |
| C[N+]1(CCCCCCCCCCCC[N+]2(C)CCOCC2)CCOCC1 [1,12-Bis-(1-methylmorpholinium)dodecane dibromide] |  |  |  |  |  | 88 µM | MIC [2, 4]: 44 µM |
| CC[N+](CC)(CC)CCCCCCCCCCCC[N+](CC)(CC)CC [1,12-Bis-(triethylammonium)dodecane dibromide] |  |  |  |  |  |  | MIC ([1]; Candida albicans, ATCC10231, read-out: MIC (μM) C. alb. (10231)): 22 µM; MIC ([2]; Cryptococcus neoformans, ATCC90112, read-out: MIC (μM) Crypto. (ATCC 90112)): 11 µM |
| CCCCCC[N+](CCCCCC)(CCCCCC)CCCCCCCCCCCC[N+](CCCCCC)(CCCCCC)CCCCCC.[Cl-].[Cl-] [1,12-Bis-(trihexylammonium)dodecane dichloride] |  |  |  |  |  |  | MIC [1, 5]: 8.8 µM; MIC [2, 6]: 17.5 µM |
| CCCCCCCC[N+](CCCCCCCC)(CCCCCCCC)CCCCCCCCCCCC[N+](CCCCCCCC)(CCCCCCCC)CCCCCCCC.[Cl-].[Cl-] [1,12-Bis-(trioctylammonium)dodecane dichloride] |  |  |  |  |  |  | MIC [1, 5]: 100 µM; MIC [2, 6]: 35 µM |
| CC[N+](CC)(CC)CCOc1cccc(OCC[N+](CC)(CC)CC)c1OCC[N+](CC)(CC)CC [Gallamine triethiodide, reference compound] | 350 μM = 0% 175 μM = 0% 88 μM = 0% 35 μM = 0% 3.5 μM = 0% | 350 μM = 0% 175 μM = 0% 88 μM = 0% 35 μM = 0% 3.5 μM = 0% | 350 μM = 0% 175 μM = 0% 88 μM = 0% 35 μM = 0% 3.5 μM = 0% | 350 μM = 0% 175 μM = 0% 88 μM = 0% 35 μM = 0% 3.5 μM = 0% | 350 μM = 0% 175 μM = 0% 88 μM = 0% 35 μM = 0% 3.5 μM = 0% | ≥ 350 µM |  |
| C[N+]1(C)CCOC(O)(c2ccc(-c3ccc(C4(O)C[N+](C)(C)CCO4)cc3)cc2)C1 (stereo not shown) [Hemicholinium dibromide, reference compound] | 350 μM = 0% 175 μM = 0% 88 μM = 0% 35 μM = 0% 3.5 μM = 0% | 350 μM = 0% 175 μM = 0% 88 μM = 0% 35 μM = 0% 3.5 μM = 0% | 350 μM = 0% 175 μM = 0% 88 μM = 0% 35 μM = 0% 3.5 μM = 0% | 350 μM = 0% 175 μM = 0% 88 μM = 0% 35 μM = 0% 3.5 μM = 0% | 350 μM = 0% 175 μM = 0% 88 μM = 0% 35 μM = 0% 3.5 μM = 0% | ≥ 350 µM |  |

Source: patent publication US7947854B2, “Bis-cationic compounds and use thereof” (The University of Sydney, priority 2003, dated 2011)
